Experiments:
GSK3β [1] = biological target: T1, GSK3β (Homo sapiens, UniProt P49841); test: Promega ADP-Glo kinase assay, GSK3β inhibition; type: biochemical; conditions: for inhibition at 100 µM: read-out: Percent Inhibition of GSK3β, 100 μM, single point, n = 3; for IC50: IC50 GSK3β (ADP-Glo), 10-point three-fold dilution from 100 μM, n = 2; for Hill slope GSK3β (ADP-Glo): four-parameter non-linear regression
GSK3β [2] = biological target: T1, GSK3β; test: Z'LYTE kinase assay; type: biochemical; conditions: for Hill slope GSK3β (Z'LYTE): four-parameter non-linear regression
GSK3α [3] = biological target: T2, GSK3α (Homo sapiens, UniProt P49840); test: Z'LYTE kinase assay; type: biochemical; conditions: for IC50: IC50 GSK3α (Z'LYTE), values of main text and Table S3; for Selectivity GSK3β versus GSK3α: from Z'LYTE IC50 values
T2 sequence (P49840 whole entry): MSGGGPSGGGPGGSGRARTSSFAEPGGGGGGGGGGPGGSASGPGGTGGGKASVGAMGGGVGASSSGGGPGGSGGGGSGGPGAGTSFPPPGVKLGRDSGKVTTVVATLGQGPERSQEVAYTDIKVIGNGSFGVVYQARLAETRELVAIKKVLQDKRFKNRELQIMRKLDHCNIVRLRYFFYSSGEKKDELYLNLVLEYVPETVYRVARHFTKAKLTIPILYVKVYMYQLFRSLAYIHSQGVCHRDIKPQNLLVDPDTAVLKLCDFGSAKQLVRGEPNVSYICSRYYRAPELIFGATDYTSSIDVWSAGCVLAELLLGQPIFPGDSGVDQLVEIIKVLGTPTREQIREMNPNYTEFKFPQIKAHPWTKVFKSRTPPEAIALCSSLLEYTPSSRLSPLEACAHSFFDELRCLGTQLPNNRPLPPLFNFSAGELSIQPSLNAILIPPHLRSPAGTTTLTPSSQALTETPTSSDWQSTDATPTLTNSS

GSK3α [4] = biological target: T2, GSK3α; conditions: cited from earlier work
CYP2D6 = conditions: in vitro ref 75; cited from earlier work
GSKβ = conditions: cited from earlier work
[5] = cohort of diabetic individuals ref 74; cited from earlier work

T1 sequence (P49841 whole entry): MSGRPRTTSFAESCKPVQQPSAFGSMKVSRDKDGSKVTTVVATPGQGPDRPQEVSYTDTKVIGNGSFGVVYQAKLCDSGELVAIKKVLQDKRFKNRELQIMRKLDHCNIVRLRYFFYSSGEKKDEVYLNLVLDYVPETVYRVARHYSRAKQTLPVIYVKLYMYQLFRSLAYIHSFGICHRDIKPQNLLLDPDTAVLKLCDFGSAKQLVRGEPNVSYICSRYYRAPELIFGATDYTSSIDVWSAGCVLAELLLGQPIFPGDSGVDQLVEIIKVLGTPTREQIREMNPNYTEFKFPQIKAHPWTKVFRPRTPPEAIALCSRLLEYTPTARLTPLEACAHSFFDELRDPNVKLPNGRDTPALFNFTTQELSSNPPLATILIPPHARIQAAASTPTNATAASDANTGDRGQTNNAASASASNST

inhibition at 100 µM (GSK3β [1]) [%] | IC50 (GSK3β [1]) [µM] | Hill slope GSK3β (ADP-Glo) (GSK3β [1]) | IC50 (GSK3β [2]) [µM] | Hill slope GSK3β (Z'LYTE) (GSK3β [2]) | IC50 (GSK3α [3]) [µM] | Selectivity GSK3β versus GSK3α (GSK3α [3]) | SMILES | Activity for GSK3α in published kinase screening (GSK3α [4]) | Interaction with CYP2D6 (CYP2D6) | Activity for GSKβ in published kinase screening (GSKβ) | Clinical safety [5]
69 | – | – | – | – | – | – | COC(=O)C1=C(C)NC(C)=C(C(=O)OC)C1c1ccccc1[N+](=O)[O-] [Nifedipine] | – | – | – | –
> 70 | 8.5 | −0.80 | 5 | 1.26 | 4.4 | non-selective | CC(=O)Nc1ncc([N+](=O)[O-])s1 [Nithiamide] | – | – | – | –
96 | – | −0.68 | – | 0.98 | – | – | CN(C)C[C@@H]1CCn2cc(c3ccccc32)C2=C(C(=O)NC2=O)c2cn(c3ccccc23)CCO1 [Ruboxistaurin] | micromolar activity | potent interactions | micromolar activity | safe up to 32 mg/day for 4 years
> 70 | 12.1 | −0.68 | 54.8 | 1.10 | 60.8 | non-selective | c1ccc2[nH]c(-c3cscn3)nc2c1 [Thiabendazole] | – | – | – | –

Reference: publication PMC7581251 (ACS Omega, 2020)
